SMILES | melting point
CN(C)CC1=C(c2ccc3sccc3c2)C2CCC(C1)C2.Cl (stereo not shown) | 57.8 °C
CNCC1=C(c2ccc3scc(C)c3c2)C2CCC(C1)C2.Cl (stereo not shown) | 204.5 to 206.7 °C
COc1cccc2cc(C3=C(CN(C)C)C4CCC3C4)sc12.Cl (racemic) | 232 to 235 °C
Cc1cc2cc(C3=C(CN(C)C)C4CCC3C4)ccc2s1.Cl (racemic) | 179.5 to 181.6 °C
CN(C)CC1=C(c2cc3cc(F)ccc3s2)C2CCC(C1)C2.Cl (racemic) | 207.4 to 211.1 °C
COc1cccc2sc(C3=C(CN(C)C)C4CCC3C4)cc12.Cl (racemic) | 239 to 242 °C
CN(C)CC1=C(c2cccc3sccc23)C2CCC1C2 (racemic) [Example 15, (+/−)-((3-(Benzo[b]thiophen-4-yl)bicyclo[2.2.1]-hept-2-en-2-yl)methyl)dimethylamine] | 73.5 to 76.9 °C

Source: patent US20040030131A1, “Pharmaceutical compounds” (priority 2000, published 2004)
